From patent publication US6433012B1, “Method for inhibiting inflammatory disease” (Large Scale Biology Corp., priority 1998, dated 2002)
Marks after values point to notes of the source that are not given here. Values belong to the molecule of their own block, whether it stands above or below them.

Tests used:
[1] = system: angiogenesis induced by hFGF-B in the chick chorioallantoic membrane (CAM); test: Chick chorioallantoic membrane (CAM) assay, 14C-proline incorporation into collagenous protein; format: in vivo; design: inhibition of hFGF-B-induced angiogenesis: dose or concentration left out as unconfirmed
Source text: This example illustrates the anti-angiogenic properties of methyl-3,5-diiodo-4-(4′-methoxyphenoxy)benzoate in the chick chorioallantoic membrane assay (CAM). The endpoint of the CAM assay was a quantitative determination of basement membrane biosynthesis by measuring the incorporation of ^14C-proline into Type IV collagenous protein.
The CAM assay involves the development of live chick embryos in Petri dishes under special sterile conditions. Therefore, only limited numbers of embryos can be used for evaluation of compounds in a single experiment. For this reason, two separate assays were conducted to test the three Biosource compounds at three concentrations per compound. In this assay, a known angiogenesis inhibitor, 2-methoxyestradiol (2-ME), was used as the positive control, and human fibroblast growth factor (hFGF) was used to induce angiogenesis in the CAM.
For testing, a minimum amount of acetone-methanol (1:1) was added to the test compounds for sterilization. The acetone-methanol mixture was then evaporated to dryness in a sterile hood. The compounds were dissolved dimethyl sulfoxide (DMSO) first and then diluted with saline containing methylcellulose. The final concentrations were 2% DMSO and 0.5% methylcellulose. All test solutions were added to each CAM in […].
Fresh fertile eggs were incubated for three days in a standard egg incubator. On Day 3, eggs were cracked under sterile conditions and embryos were placed in 20×100 mm plastic Petri dishes and cultivated at 37° C. in an embryo incubator with a water reservoir on the bottom shelf. Air was continuously bubbled into the water reservoir by using a small pump so that the humidity in the incubator was kept constant. Observations were made daily to ensure that all embryos were healthy. Dead or unhealthy embryos were removed from the incubator immediately to avoid contamination. On Day 9, a sterile silicone ring cup was placed on each CAM and […] of ^14C-proline with or without the test compound plus 2.5 ng of hFGF dissolved in saline containing 0.5% methylcellulose was delivered into each ring cup in a sterile hood. 2-ME was tested in parallel to serve as a reference compound. After addition of test materials, the embryos were returned to the incubator and cultivation continued. On Day 12, all embryos were transferred to a cold room at 4-10° C. The antiangiogenic effect of each test compound was determined by using the collagenase assay (Maragoudakis, et al., J. Pharm. Exp. Ther. 251:679-682 (1989)) to measure ^14C-proline incorporation into collagenous protein.
With the embryos placed on ice, a piece of CAM 10 mm in diameter was cut off under each ring cup and placed in a separate tube. To each tube was added 1.0 mL of phosphate-buffered saline (PBS, pH 7.3) containing 0.11 mg cycloheximide and 0.17 mg dipyridyl. The tubes were placed in a boiling water bath for 10 min and then cooled to room temperature. The PBS in each tube was discarded after centrifugation at 3000× g for 10 min. The CAM residue was washed once with 3 mL of 15% TCA and then three times with 3 mL of 5% TCA. Centrifugation was carried out as described above between each washing. At this point all non-protein bound radioactivity was removed, and the CAM containing the newly synthesized ^14C-collagenous protein was suspended in 0.9 mL of 0.1 N NaOH and 1.1 mL of HEPES buffer at pH 7.4. The pH of the sample was neutralized with 0.8 N HCl, using phenol red as indicator.
To digest the ^14C-collagenous protein, 7.5 units of collagenase and 500 nmol of calcium chloride in […] of HEPES buffer was added to the above samples, and mixtures were incubated at 37° C. for 4 h. The reaction was stopped by adding 1.0 mL of 20% TCA containing 5 mg of tannic acid into each tube. After vortex mixing, the samples were centrifuged at 3000× g for 10 min. […]

[2] = system: MCF-7 human breast carcinoma cells; test: Chromosome condensation / prometaphase arrest; format: cell-based; conditions: 1 μM for 24 h
[3] = system: TNF-α mRNA in murine macrophage PU5-1.8 cell line; test: TNF-α mRNA in LPS-stimulated macrophages (Northern blot); format: cell-based
Description: The murine macrophage PU5-1.8 cell line was purchased from the American Type Culture Collection (ATCC, Rockville, Md.). Cells were grown in DMEM medium supplemented with […], 0.1 mM nonessential amino acids, 2 mM glutamine and 5% fetal bovine serum (Life Technologies, Staten Island, N.Y.). Cells were maintained in a humidified atmosphere of 5% CO2-95% air at 37° C. Cells were passages twice weekly by firmly tapping the side of the flask to dislodge the adherent cells. Both nonadherent and adherent cells were passages. Exponentially growing cells were seeded at 5×10 ^5/mL, 4mL per 60-mm dish 24 h prior to the experiment. Test compounds were delivered in 1 mL volumes of the medium added to each dish at the start of the experiment. All dishes were incubated at 37° C. in 5% CO2-95% air for 3 h.
Total RNA was isolated by the guanidinium-cesium chloride method as described in N. S. Waleh, J. Gallo, T. D. Grant, B. J. Murphy, R. H. Kramer and R. M. Sutherland. (1994) “Selective downregulation of integrin receptors in spheroids of squamous cell carcinoma” Cancer Res., 54:838-843. Five to 10 μg of total RNA was electrophoresed in 1% agarose gels containing 6% formaldehyde. Following electrophoresis, gels were stained with ethidium bromide to visualize the positions of 28S and 18S RNA. The RNAs were then transferred to nylon membranes (Amersham Hybond N) by capillary blotting and fixed to the filter by exposure to UV light. The blots were probed with ^32P-labeled cDNA sequences of human TNF-α obtained from the American Type Culture Collection (ATCC). The TNF-α cDNA was a 1.1 kb PstI fragment of plasmid pE4 in E. coli MM294 (ATCC 39894). Hybridizations were carried out at 42° C. in 50% formamide, 5×SSC, 5×Denhardt's solution, 0.1% SDS, and 0.3 mg/mL salmon sperm DNA. Filters were washed by 1×SSC, 0.1% SDS, twice at room temperature for 15 min and once at 55° C. in 0.1×SSC, 0.1% SDS for 1 hr. Filters were exposed to X-ray film at −70° C. using an intensifying screen (Coronex Hi-Plus).
Hybridized bands were quantified by analyzing the images obtained by using a video densitometer (Applied Imaging Corporation, Santa Clara, Calif.). Film densities were calibrated using an optical-density wedge.

[4] = system: purified tubulin; conditions: as a function of colchicine or vinblastine concentration
Source text: Tubulin-binding antimitotic drugs interact with the protein at diverse sites.

[5] = Table 1 experiment, dose 8.3 μg/CAM
[6] = Table 1 experiment, dose 25 μg/CAM
[7] = Table 1 experiment, dose 75 μg/CAM
[8] = Table 2 experiment, dose 8.3 μg/CAM
[9] = Table 2 experiment, dose 25 μg/CAM
[10] = Table 2 experiment, dose 75 μg/CAM

SMILES: COc1cc2c(cc1O)CC[C@@H]1[C@@H]2CC[C@]2(C)[C@@H](O)CC[C@@H]12 [2-Methoxyestradiol, 2-methoxyestradiol, reference compound]
inhibition of hFGF-B-induced angiogenesis [1]: 38%
% Inhibition [1, 5]: 9%
^14C-Proline Incorporated into Collagenous Protein (mean ± S.E.) [1, 5]: 5711 ± 1469 cpm/mg-protien
% Inhibition [1, 6]: 20%
^14C-Proline Incorporated into Collagenous Protein (mean ± S.E.) [1, 6]: 5068 ± 1609 cpm/mg-protien
% Inhibition [1, 7]: 38%
^14C-Proline Incorporated into Collagenous Protein (mean ± S.E.) [1, 7]: 3875 ± 891 cpm/mg-protien
% Inhibition [1, 8]: 6%
^14C-Proline Incorporated into Collagenous Protein (mean ± S.E.) [1, 8]: 10499 ± 1372 cpm/mg-protien
% Inhibition [1, 9]: 35%
^14C-Proline Incorporated into Collagenous Protein (mean ± S.E.) [1, 9]: 7303 ± 1424 cpm/mg-protien
% Inhibition [1, 10]: 38%
^14C-Proline Incorporated into Collagenous Protein (mean ± S.E.) [1, 10]: 6984 ± 1022^b cpm/mg-protien

SMILES: COc1cc2c(c(OC)c1OC)-c1ccc(OC)c(=O)cc1[C@@H](NC(C)=O)CC2 [colchicine, reference compound]
chromosome condensation (prometaphase arrest) [2]: produced identical chromosome condensation patterns
inhibition of TNF-α mRNA accumulation ([3]; 10 μM added to LPS (100 ng/mL) treated cultures, 3 h): 68%
effect on TNF-α mRNA expression, compound only ([3]; 10 μM, without LPS, 3 h): no effect
total RNA integrity ([3]; cells treated with different concentrations): intact

effect of competitor on binding of 14C-labeled BTO-956 to tubulin [4]: had no effect
SMILES: CC[C@]1(O)C[C@@H]2CN(CCc3c([nH]c4ccccc34)[C@@](C(=O)OC)(c3cc4c(cc3OC)N(C)[C@H]3[C@@](O)(C(=O)OC)[C@H](OC(C)=O)[C@]5(CC)C=CCN6CC[C@]43[C@@H]65)C2)C1 [vinblastine]
